Data from PubChem BioAssay (NCI).
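Method: 48-hour compound exposure of cells in 96-well plates, five concentrations, linear interpolation of endpoints. TGI: total growth inhibition.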

How the values were obtained:
Assay in all cases: DTP human tumour cell line panel, 48 h
MALME-3M melanoma = tested on: MALME-3M melanoma
SF-295 CNS = tested on: SF-295 CNS
NCI-H226 lung = tested on: NCI-H226 lung
HT29 colon = tested on: HT29 colon
LOX IMVI melanoma = tested on: LOX IMVI melanoma
SK-MEL-2 melanoma = tested on: SK-MEL-2 melanoma
NCI-H460 lung = tested on: NCI-H460 lung
BT-549 breast = tested on: BT-549 breast
SK-MEL-5 melanoma = tested on: SK-MEL-5 melanoma
HCC-2998 colon = tested on: HCC-2998 colon
SF-539 CNS = tested on: SF-539 CNS
MDA-MB-231 breast = tested on: MDA-MB-231 breast
HOP-92 NSCLC = tested on: HOP-92 NSCLC
SNB-75 CNS = tested on: SNB-75 CNS
HCT-116 colon = tested on: HCT-116 colon
MDA-MB-435 = tested on: MDA-MB-435
KM12 colon = tested on: KM12 colon
NCI-H522 lung = tested on: NCI-H522 lung
K-562 leukemia = tested on: K-562 leukemia
ACHN renal = tested on: ACHN renal
UACC-257 melanoma = tested on: UACC-257 melanoma
MOLT-4 leukemia = tested on: MOLT-4 leukemia
A549 NSCLC = tested on: A549 NSCLC
COLO 205 colon = tested on: COLO 205 colon
UACC-62 melanoma = tested on: UACC-62 melanoma
SK-MEL-28 melanoma = tested on: SK-MEL-28 melanoma
SK-OV-3 ovarian = tested on: SK-OV-3 ovarian
SW-620 colon = tested on: SW-620 colon
HL-60(TB) leukemia = tested on: HL-60(TB) leukemia
SF-268 CNS = tested on: SF-268 CNS
EKVX NSCLC = tested on: EKVX NSCLC
CAKI-1 renal = tested on: CAKI-1 renal
DU-145 prostate = tested on: DU-145 prostate
M14 melanoma = tested on: M14 melanoma
OVCAR-8 ovarian = tested on: OVCAR-8 ovarian
OVCAR-3 ovarian = tested on: OVCAR-3 ovarian
OVCAR-4 ovarian = tested on: OVCAR-4 ovarian
A498 renal = tested on: A498 renal
MCF7 breast = tested on: MCF7 breast
UO-31 renal = tested on: UO-31 renal
HOP-62 NSCLC = tested on: HOP-62 NSCLC
IGROV1 ovarian = tested on: IGROV1 ovarian
NCI-H23 lung = tested on: NCI-H23 lung
CCRF-CEM leukemia = tested on: CCRF-CEM leukemia
786-0 renal = tested on: 786-0 renal
SN12C renal = tested on: SN12C renal
SNB-19 CNS = tested on: SNB-19 CNS
HS 578T breast = tested on: HS 578T breast
OVCAR-5 ovarian = tested on: OVCAR-5 ovarian
MDA-N = tested on: MDA-N
NCI/ADR-RES ovarian = tested on: NCI/ADR-RES ovarian
T-47D breast = tested on: T-47D breast
TK-10 renal = tested on: TK-10 renal
RXF 393 renal = tested on: RXF 393 renal
HCT-15 colon = tested on: HCT-15 colon
PC-3 prostate = tested on: PC-3 prostate
RPMI-8226 leukemia = tested on: RPMI-8226 leukemia

Measured: TGI

O=C(O)CCC(NC(=O)/C(=C/c1ccccc1)NC(=O)c1ccccc1)C(=O)O (configuration not stated)
> 100 µM: all assays above
